Each block holds one compound with its values, some of them ahead of it.
Tests used:
[1] = target: LIM domain kinase 2 (Homo sapiens) (UniProt P53671); settings: at 10 µM
[2] = target: T1, Serine/threonine-protein kinase Nek1 (Homo sapiens) (UniProt Q96PY6); test: Selectivity interaction (KinomeScan (DiscoverX)) EUB0000607a NEK1; settings: at 10 µM
T1 sequence (whole entry): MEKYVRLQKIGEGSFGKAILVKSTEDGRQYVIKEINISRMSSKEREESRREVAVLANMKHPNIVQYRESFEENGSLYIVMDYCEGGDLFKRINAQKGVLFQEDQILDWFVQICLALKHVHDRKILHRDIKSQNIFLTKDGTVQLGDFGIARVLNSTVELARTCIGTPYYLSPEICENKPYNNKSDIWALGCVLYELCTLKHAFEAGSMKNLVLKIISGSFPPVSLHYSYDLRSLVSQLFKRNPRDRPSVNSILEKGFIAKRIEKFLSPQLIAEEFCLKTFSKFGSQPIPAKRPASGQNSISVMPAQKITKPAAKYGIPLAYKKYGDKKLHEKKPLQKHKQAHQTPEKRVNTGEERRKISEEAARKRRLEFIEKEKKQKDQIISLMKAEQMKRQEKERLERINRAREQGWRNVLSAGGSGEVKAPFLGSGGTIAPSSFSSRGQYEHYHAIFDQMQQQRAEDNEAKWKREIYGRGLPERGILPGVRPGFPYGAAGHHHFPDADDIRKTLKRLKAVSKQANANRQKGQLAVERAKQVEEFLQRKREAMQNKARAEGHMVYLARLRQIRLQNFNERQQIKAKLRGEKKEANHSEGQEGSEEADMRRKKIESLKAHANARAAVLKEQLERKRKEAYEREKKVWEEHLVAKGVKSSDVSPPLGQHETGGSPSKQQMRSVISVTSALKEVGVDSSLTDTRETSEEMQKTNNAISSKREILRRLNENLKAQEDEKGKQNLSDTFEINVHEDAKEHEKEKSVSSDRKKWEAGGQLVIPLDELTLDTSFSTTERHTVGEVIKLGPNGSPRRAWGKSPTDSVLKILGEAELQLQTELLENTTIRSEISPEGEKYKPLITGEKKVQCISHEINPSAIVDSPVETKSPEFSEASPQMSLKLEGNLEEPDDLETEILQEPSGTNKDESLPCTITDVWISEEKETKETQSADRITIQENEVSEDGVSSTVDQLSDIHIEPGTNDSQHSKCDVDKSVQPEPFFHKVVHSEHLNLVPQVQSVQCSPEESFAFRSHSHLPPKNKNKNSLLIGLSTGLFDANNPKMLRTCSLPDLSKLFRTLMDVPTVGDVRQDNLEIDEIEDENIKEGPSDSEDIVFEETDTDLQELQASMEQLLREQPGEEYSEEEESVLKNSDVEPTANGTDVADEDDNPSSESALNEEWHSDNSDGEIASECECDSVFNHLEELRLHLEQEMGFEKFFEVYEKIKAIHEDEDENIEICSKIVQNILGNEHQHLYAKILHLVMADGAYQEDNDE

[3] = target: T2, Serine/threonine-protein kinase TBK1 (Homo sapiens) (UniProt Q9UHD2); test: Selectivity interaction (KinomeScan (DiscoverX)) EUB0000045b TBK1
T2 sequence (whole entry): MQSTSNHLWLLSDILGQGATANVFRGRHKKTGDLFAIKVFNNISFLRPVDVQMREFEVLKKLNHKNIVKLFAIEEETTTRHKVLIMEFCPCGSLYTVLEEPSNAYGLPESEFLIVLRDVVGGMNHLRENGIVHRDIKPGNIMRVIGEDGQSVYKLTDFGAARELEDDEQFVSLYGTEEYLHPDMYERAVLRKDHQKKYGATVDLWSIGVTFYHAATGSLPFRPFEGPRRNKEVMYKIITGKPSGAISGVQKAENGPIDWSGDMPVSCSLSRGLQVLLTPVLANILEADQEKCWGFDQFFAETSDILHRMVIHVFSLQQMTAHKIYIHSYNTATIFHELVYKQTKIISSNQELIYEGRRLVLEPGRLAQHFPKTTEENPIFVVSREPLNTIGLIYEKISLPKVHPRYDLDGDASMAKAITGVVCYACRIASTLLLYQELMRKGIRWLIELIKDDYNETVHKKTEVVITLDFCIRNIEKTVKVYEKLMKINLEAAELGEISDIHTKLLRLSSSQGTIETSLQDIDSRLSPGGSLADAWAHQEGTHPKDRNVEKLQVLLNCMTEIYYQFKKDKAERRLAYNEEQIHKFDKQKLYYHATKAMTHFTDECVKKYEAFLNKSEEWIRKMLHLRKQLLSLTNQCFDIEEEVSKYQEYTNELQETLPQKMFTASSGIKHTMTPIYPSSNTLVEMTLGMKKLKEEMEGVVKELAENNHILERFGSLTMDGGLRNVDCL

[4] = target: Serine/threonine-protein kinase PLK1 (Homo sapiens, UniProt P53350); test: Selectivity interaction (KinomeScan (DiscoverX)) EUB0000595a PLK1; settings: at 10 µM
[5] = target: T3, Serine/threonine-protein kinase 3 (Homo sapiens) (UniProt Q13188); test: Selectivity interaction (Kinase panel (Z-LYTE Assay)) EUB0001632a STK3; settings: at 10 µM
T3 sequence (whole entry): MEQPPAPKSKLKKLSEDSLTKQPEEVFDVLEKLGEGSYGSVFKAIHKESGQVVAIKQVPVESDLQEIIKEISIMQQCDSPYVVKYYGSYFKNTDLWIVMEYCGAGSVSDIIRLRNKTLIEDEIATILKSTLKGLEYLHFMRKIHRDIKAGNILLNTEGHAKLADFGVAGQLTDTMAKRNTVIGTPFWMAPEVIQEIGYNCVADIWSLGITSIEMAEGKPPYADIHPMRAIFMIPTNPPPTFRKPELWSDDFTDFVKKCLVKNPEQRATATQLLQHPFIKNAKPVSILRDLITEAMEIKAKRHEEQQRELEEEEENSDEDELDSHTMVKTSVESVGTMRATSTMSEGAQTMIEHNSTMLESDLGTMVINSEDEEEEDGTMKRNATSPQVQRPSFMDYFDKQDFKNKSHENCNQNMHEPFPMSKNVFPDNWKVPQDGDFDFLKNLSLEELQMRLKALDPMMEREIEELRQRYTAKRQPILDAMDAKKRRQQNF

[6] = target: T4, Aurora kinase C (Homo sapiens) (UniProt Q9UQB9); test: Selectivity interaction (Kinase panel (Z-LYTE Assay)) EUB0001632a AURKC; settings: at 10 µM
T4 sequence (whole entry): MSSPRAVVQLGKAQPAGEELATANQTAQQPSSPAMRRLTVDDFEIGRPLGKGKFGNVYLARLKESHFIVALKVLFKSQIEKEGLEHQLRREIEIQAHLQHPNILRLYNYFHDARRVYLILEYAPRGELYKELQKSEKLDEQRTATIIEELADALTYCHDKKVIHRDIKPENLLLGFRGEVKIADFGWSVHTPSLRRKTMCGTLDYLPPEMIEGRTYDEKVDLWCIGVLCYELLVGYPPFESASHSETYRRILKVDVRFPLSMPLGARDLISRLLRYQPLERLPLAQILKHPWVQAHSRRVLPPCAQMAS

Chain of LIM domain kinase 2 (Homo sapiens) (P53671 whole entry, looked up, the tested form may be a part): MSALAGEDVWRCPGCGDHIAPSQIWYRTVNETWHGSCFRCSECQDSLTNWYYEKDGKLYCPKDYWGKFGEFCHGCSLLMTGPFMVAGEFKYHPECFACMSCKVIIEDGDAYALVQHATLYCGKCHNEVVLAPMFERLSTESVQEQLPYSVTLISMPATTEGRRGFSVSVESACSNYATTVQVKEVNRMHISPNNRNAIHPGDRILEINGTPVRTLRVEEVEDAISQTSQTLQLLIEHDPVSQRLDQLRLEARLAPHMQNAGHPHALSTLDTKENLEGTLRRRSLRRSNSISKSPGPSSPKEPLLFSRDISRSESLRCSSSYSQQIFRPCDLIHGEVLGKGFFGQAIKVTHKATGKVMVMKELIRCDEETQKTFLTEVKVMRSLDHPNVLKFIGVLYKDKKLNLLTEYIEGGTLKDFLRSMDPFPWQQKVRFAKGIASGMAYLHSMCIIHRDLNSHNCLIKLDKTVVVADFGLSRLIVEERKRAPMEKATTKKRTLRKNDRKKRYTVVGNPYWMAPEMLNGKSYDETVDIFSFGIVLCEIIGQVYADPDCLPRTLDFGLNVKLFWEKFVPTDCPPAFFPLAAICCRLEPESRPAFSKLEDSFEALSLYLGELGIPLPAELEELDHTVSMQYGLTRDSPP
Chain of Serine/threonine-protein kinase PLK1 (P53350 whole entry): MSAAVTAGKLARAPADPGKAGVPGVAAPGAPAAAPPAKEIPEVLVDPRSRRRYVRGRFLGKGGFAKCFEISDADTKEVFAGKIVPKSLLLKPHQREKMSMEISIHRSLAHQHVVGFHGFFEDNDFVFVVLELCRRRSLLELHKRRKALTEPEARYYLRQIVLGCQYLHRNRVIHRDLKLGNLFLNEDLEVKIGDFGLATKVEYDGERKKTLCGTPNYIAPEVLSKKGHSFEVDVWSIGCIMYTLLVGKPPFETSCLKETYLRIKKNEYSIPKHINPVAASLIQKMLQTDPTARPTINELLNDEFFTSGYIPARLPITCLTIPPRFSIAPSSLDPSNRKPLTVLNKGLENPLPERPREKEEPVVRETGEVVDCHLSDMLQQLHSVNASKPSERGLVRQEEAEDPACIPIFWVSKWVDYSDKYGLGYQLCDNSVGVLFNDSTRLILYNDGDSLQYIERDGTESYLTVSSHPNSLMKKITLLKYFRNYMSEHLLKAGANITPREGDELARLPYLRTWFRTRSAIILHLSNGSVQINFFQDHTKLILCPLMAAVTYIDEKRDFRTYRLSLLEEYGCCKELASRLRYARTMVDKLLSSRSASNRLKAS

% of control [1]: 100%
SMILES: CCN(CC)CCCCNc1ncc2cc(-c3cc(OC)cc(OC)c3)c(NC(=O)NC(C)(C)C)nc2n1

SMILES: CNC(=O)Nc1ccc(-c2nc(N3CC4CCC(C3)O4)c3cnn(C4CCC5(CC4)OCCO5)c3n2)cc1
% of control [2]: 100%

SMILES: C=CC(=O)Nc1cc(-n2c(=O)ccc3cnc4ccc(-c5ccc(NS(C)(=O)=O)cc5)cc4c32)ccc1C
% of control ([3]; at 1 µM): 100% | % of control ([3]; at 10 µM): 77%

SMILES: COCC(=O)NC/C=C/c1ccc2ncnc(Nc3ccc(Oc4ccc(C)nc4)c(C)c3)c2c1 [CP-724714]
% of control [4]: 81%

% of control [5]: 0.418% | % of control [6]: 8.76%
SMILES: Cn1cc(-n2cnc3c(NCc4nc5cc(Cl)c(Cl)cc5[nH]4)nc(N4CCOCC4)nc32)cn1
